Entries after “also recorded” stand apart in the source; their conditions may differ.
Experiments:
YAP [1] = assay: Nuclear YAP and Ki67 in SGs of mice treated with PAC-1 and/or Verteporfin; type: in vivo
From the text: Therefore, the present inventors investigated whether SG homeostasis is governed by YAP activity in a caspase-3 dependent manner. For this aim the present inventors employed the YAP chemical inhibitor, Verteporfin, which is known to inhibit the interaction between YAP and TEAD in the nucleus and block transcriptional activity (reference 42). The present inventor administered Verteporfin either alone or in combination with the caspase-3 activator PAC-1.

de novo regenerated SGs = assay: De novo SG regeneration from the wound bed after full thickness excision wounds; type: in vivo, mice; details: for size and maturation of regenerated SGs: regenerating skin after wounding
Experimental: The wound healing process can stimulate de novo regeneration of HFs and SGs (reference 35). As such, the present inventors utilized this model to examine whether caspase-3 activation can drive SG development and maturation. Eight-week old mice were injected with DMSO, PAC-1 or PAC-1 along with Verteporfin for two days prior to wound infliction. Full thickness excision wounds (1 cm^2) were generated on the dorsalskins and skin samples were harvested 20 and 30 days post wound infliction. […] Importantly, YAP inhibition reversed these regenerative phenotypes, leading to a 10-fold reduction in the number of de novo formed SGs (FIGS. 17D and E).

XIAP [2] = assay: XIAP expression in treated mice; type: in vivo; details: for XIAP levels: treated mice
From the text: In Drosophila, Yorkie (Yki) the homolog of YAP directly regulates the transcription of Death-associated inhibitor of apoptosis 1 (Diap1), which is the functional equivalent of XIAP [Fuchs, Y. & Steller, H. Programmed cell death in animal development and disease. Cell 147, 742-758 (2011); Zhang, L., et al. The TEAD/TEF family of transcription factor Scalloped mediates Hippo signaling in organ size control. Developmental cell 14, 377-387 (2008)]. Therefore, and without being bound by any theory, the present inventors hypothesized that in the SG, XIAP might be transcriptionally regulated by YAP to balance caspase-3 activity. […] Moreover, XIAP protein levels were increased upon caspase-3 activation with PAC-1, but this effect was abolished when YAP was inhibited (FIG. 29D).

XIAP [3] = assay: XIAP protein and mRNA levels in EGFPhigh SGPZ cells; type: cell-based, mice
Experimental: RNA extraction, reverse transcription and real-time PCR (RT-PCR)—RNA was isolated using Trizol (Sigma) and up to 2 μg of RNA were subjected to cDNA synthesis (Applied Biosystems). Real time PCR was carried out using the PerfeCTa SYBR Green FastMix (Quanta), with gene-specific primers [RpLp0 […] (SEQ ID NO:50) and […] (SEQ ID NO:51); WTIP […] (SEQ ID NO:52) and […] (SEQ ID NO:53); ErbB4 […] (SEQ ID NO:54) and […] (SEQ ID NO:55); HOXC13 […] (SEQ ID NO:56) and […] (SEQ ID NO:57); HOXA5 […] (SEQ ID NO:58) and […] (SEQ ID NO:59)]. Amplicon levels were analysed in triplicate and quantitated relative to a standard curve comprising cDNA, and values normalized to levels of the housekeeping gene (Rplp0 or Gapdh). Reactions were: 3 minutes at 95° C., then 40 cycles of 10 seconds at 95° C. and 30 seconds at 60° C. with addition of melt curve step: 10 seconds at 95° C., and increments of 0.5° C. every 5 seconds between 65° C. to 95° C.
In Drosophila, Yorkie (Yki) the homolog of YAP directly regulates the transcription of Death-associated inhibitor of apoptosis 1 (Diap1), which is the functional equivalent of XIAP [Fuchs, Y. & Steller, H. Programmed cell death in animal development and disease. Cell 147, 742-758 (2011); Zhang, L., et al. The TEAD/TEF family of transcription factor Scalloped mediates Hippo signaling in organ size control. Developmental cell 14, 377-387 (2008)]. […]

[4] = test system: excision wounds (1 cm^2) on dorsal skin; assay: Wound repair of full thickness excision wounds on dorsal skin; type: in vivo, mice
From the text: For all wound repair experiments, mice were sedated with isofluorane. Mice were shaved with electric clippers and treated topically with a hair removal cream for a few minutes (Nair). Full-thickness excision wounds (1 cm^2) were generated on the dorsal skins and monitored for wound coverage. PWI, mice were individually housed. At the desired time PWI, mice were euthanized with CO2 and the wounded skins were harvested and either embedded in OCT or prepared for whole mounts as described above or for protein extraction.
Inhibition of caspase-3 impairs wound repair—Since YAP is known to play a chief role in regeneration (34), the present inventors investigated whether in vivo inhibition of Caspase-3 affects the wound repair dynamic by modulating YAP activity. […] Full thickness excision wounds (1.0 cm^2) were generated on the dorsalbacks and monitored for wound coverage. In control mice, three days post wound infliction (PWI) the wound size was reduced by 60% while in Ivachtin and z-DEVD-fink (SEQ ID NO: 71) treated mice, it was reduced by only 10% and 20%, respectively (FIG. 5A and FIG. 5B).

sebaceous gland (SG) = assay: Sebaceous gland (SG) size and cell proliferation in mice injected subcutaneously with caspase-3 inhibitors or activators; type: in vivo; details: for SG size: eight week old mice; for SG size / cell proliferation / proliferative rates in the SG: subcutaneous injection for 7 days; for cell proliferation / proliferative rates in the SG / caspase-3 activation in the SG: mice; for caspase-3 activation in the SG: subcutaneous injection for seven days
Experimental: Immunofluorescence—Skins were embedded in OCT, frozen, sectioned, and fixed in 4% paraformaldehyde. Tail samples were treated with 5 mM EDTA for 4 hours at 37° C. to separate skin epithelium from dermis and fixed in formal saline for 2 hours at room temperature. Dorsal samples were treated with 5 mM EDTA for 6 hours at 37° C. to separate skin epithelium from dermis and fixed in formal saline for 1 hour at room temperature. Samples were blocked for 2 hours in Blocking buffer consisting of 10% Goat serum, 2% BSA, 0.2% Triton-X. Primary antibodies were diluted in blocking buffer and tissue/sections were incubated overnight at 4° C. Whole mounts or sections were washed at least 3 times with PBS. Secondary antibodies were incubated for 1 hour at room temperature followed by 4 washes with PBS. The following primary antibodies were used: YAP (Rabbit, 1:100, Cell Signalling, Mouse 1:100 Santa Cruz), pYAP (Rabbit, 1:100 Cell Signalling), α-E-Catenin (Rabbit, 1:100, Cell Signalling), Ki67 (Rabbit, 1:100, Abcam; Rat, 1:100, eBioscience), CD34 (Rat, 1:100, eBioscience), K15 (Mouse, 1:100, Thermo, Chicken, 1:1000, Abcam), Sox9 (Rabbit, 1:100, Millipore, Goat, 1:50, Santa Cruz). Cleaved-Caspase-3 (Rabbit, 1:100, Cell signalling), Phalloidin (1:250, Life Technologies). TUNEL was performed using ApopTag TdT (Millipore). […] Analysis was performed on Zeiss LSM 880 confocal microscope.

YAP [5] = assay: YAP nuclear translocation and pYAP levels in EGFPhigh SGPZ cells; type: cell-based, mice; details: immunoblot
Experimental: Cell culture—The HaCaT and HEK293 cell lines were cultured in DMEM medium supplemented with 10% FBS, 1% P/S (Pen/Strep) and 1% L-glutamine. Integrin α6^+CD34^+ HFSCs and integrin α6^+CD34^−EGFP^high SGPZ cells were isolated and cultured in HFSC media on sustaining J2 feeder cells. Serum was chelated for a calcium concentration of 50 μM. […] Cells were fixed in 4% PFA for 10 minutes for immunofluorescence analysis or harvested for protein or RNA extraction.
Given that Caspase-3 inhibition hindered cell number and proliferation in vitro the present inventors next examined whether this was mediated via YAP in EGFP^high SGPZ cells using K15^+ SGPZ cells. […] Similar findings as to effect of caspase-3 inhibition on YAP activation and proliferation were also obtained in HaCaT and Hek293E3 cells (FIGS. 3J-K, FIGS. 11B-F).

α-Catenin [6] = assay: Immunoblot of α-Catenin in EGFPhigh SGPZ cells; type: cell-based, mice; details: extracts from EGFPhigh SGPZ cells
α-Catenin [7] = assay: α-Catenin levels in vivo after caspase-3 inhibition or activation; design: species or system mice; details: Western blot and immunofluorescence
Experimental: TUNEL was performed using ApopTag TdT (Millipore). […] Analysis was performed on Zeiss LSM 880 confocal microscope.
The levels of α-Catenin are known to be a critical factor in the regulation of YAP (27). In low confluent cells, diminished levels of α-Catenin serve as a mechanotransduction mechanism that instructs the nuclear translocation of YAP and drives proliferation (27, 33). […] The present inventors therefore examined the levels of α-Catenin both in vitro and in vivo, by employing both Western blot analysis and immunofluorescence.

[8] = test system: integrin α6+CD34−EGFPhigh SGPZ cells; assay: Proliferation and expansion of isolated SGPZ cells treated with caspase-3 inhibitors; type: cell-based, mice
Experimental: Flow Cytometry—SGPZ cell isolation and FACS analysis were performed with K15-EGFP mice and CD34, integrin α6 and Sca1 antibodies. K15-GFP^high cells were isolated from ears and dorsal skin of 8-week old B6.Cg-Tg(Krt1-15-EGFP)2Cot/J mice.

[9] = test system: integrin α6+CD34+ HFSCs, HaCaT keratinocytes and Hek293E3 cells; assay: Expansion of other cell types treated with caspase-3 inhibitors; type: cell-based
From the text: In order to examine whether Caspase-3 affects the expansion of other cell types the present inventors isolated integrin α6^+CD34^+ HFSCs from second telogen mice.

B16F10 melanoma cells = B16F10 melanoma cells in vitro: growth, Ki67, pYAP, α-Catenin; type: cell-based
From the text: FIG. 23D—A histogram depicting quantifications of 501-A total cells number after treatment with Z-DEVD-fink (SEQ ID NO: 71). FIG. 23E—Images depicting B16F10 melanoma cells stained for Ki67 (red), active cleaved Caspase-3 (green) and nuclear counterstain DAPI (blue). […] Insets are zoom in on specific cells, Denotation: CP3, Caspase-3. Scale bars: 100 μm. ** (P<0.01), *** (P<0.001).
FIG. 24A—Images depicting B16F10 melanoma cells stained for pYAP (red). […] FIG. 24D—Images depicting B16F10 melanoma cells stained for α-Catenin (green). […] FIG. 24E—Immunoblot analysis of proteins isolated from B16F10 melanoma cells using antibodies against pYAP, α-Catenin and α-Tubulin as control.

[10] = test system: murine melanoma cell line B16F10; assay: B16F10 melanoma tumors in mice
From the text: FIG. 21E—Resected tumors stained for the proliferative marker Ki67 (red). […] Denotation: CP3, Caspase-3. ** (P<0.01), *** (P<0.001).
FIG. 22C—A histogram displaying quantification of tumor weight (mg) in treated (with Ivachtin) and non-treated (DMSO) animals. […] FIG. 22E—A histogram depicting quantification of Ki67^+ melanoma cells in vivo after treatment with Ivachtin. […] FIG. 22G—A histogram depicting quantification of TUNEL^+ melanoma cells. Denotation: CP3, Caspase-3. Scale bars: 10 μm (FIGS. 22D and 22F). * (P<0.05).

human melanoma cells = assay: GFP-infected human melanoma cells injected into recipient mice; details: mouse
Experimental: FIG. 15A—Melanoma cell were injected into recipient mice. […] Representative image 6 days after first treatment. FIG. 15B—quantification of tumor development indicates inhibition of tumor size in response to caspase-3 inhibition. FIG. 15C—Extracted tumors were analyzed for proliferation using the Ki67 marker and the presence of GFP^+ melanoma cells. FIG. 15D—Tumors treated with the caspase-3 activator ABT-199 result in a dramatic increase in tumor mass. […] Scale bars, 20 μm.
Examination of the effect of caspase-3 inhibition on melanoma formation in vivo—For this aim human melanoma cells were stably infected with GFP. Cells were then injected into to recipient mice and the effect of administrating caspase-3 inhibitors was monitored.

Verteporfin was tested, and the “proliferative effect of PAC-1 (Ki67+ cells in SGs)” value (YAP [1]; Verteporfin in combination with PAC-1) was “able to overcome the positive proliferative effect of PAC-1”, the “nuclear translocation of YAP” value (YAP [1]; Verteporfin treatment) was “did not affect” and the “size and maturation of regenerated SGs” value (de novo regenerated SGs) was “did not develop into mature SGs”. For the same compound, the “PAC-1 induced increase of XIAP protein levels when YAP was inhibited” value (XIAP [2]; PAC-1 with Verteporfin) was “abolished”, the XIAP levels (XIAP [2]) was “decrease in XIAP levels” and the “XIAP mRNA levels, lower compared to control cells” value (XIAP [3]; RNA from EGFPhigh SGPZ cells) was 2 fold. The “increased repair by PAC1 under YAP inhibition” value ([4]; PAC1 with VP) was “could be revered”.
For C=CCc1cccc(/C=N/NC(=O)CN2CCN(Cc3ccccc3)CC2)c1O [PAC-1], the SG size (sebaceous gland (SG)) was “significant increase”, the “cell proliferation / proliferative rates in the SG” value (sebaceous gland (SG)) was “significant increase” and the “caspase-3 activation in the SG” value (sebaceous gland (SG)) was “significant increase”. The “levels of pYAP” value (YAP [5]) was “significantly decreased”, the “numbers of nuclear YAP+/Ki67+ cells in SGs” value (YAP [1]; PAC-1 alone) was “higher numbers” and the “number of regenerated de novo SGs” value (de novo regenerated SGs; 20 and 30 days post wound infliction) was “striking increase”. The “size and maturation of regenerated SGs” value (de novo regenerated SGs) was “significantly larger and more developed SGs”, the “levels of full length α-Catenin” value (α-Catenin [6]) was “decreased levels” and the “~90 kDa and ~85 kDa α-Catenin bands (cleaved)” value (α-Catenin [6]) was “much higher levels”. The “levels of α-Catenin” value (α-Catenin [7]) was “decreased levels”, the XIAP levels (XIAP [2]) was “increased” and the XIAP levels (XIAP [3]; EGFPhigh SGPZ cells) was “increase in XIAP levels”. For the same compound, the “number of nuclear YAP and Ki67 cells” value ([4]; 7 days PWI) was “increased number” and the “wound healing compared with control” value ([4]; PAC-1 injected daily subcutaneously) was “healed significantly faster than control”.
CC(=O)OCCN1C(=O)c2c(C)nc3ccc(S(=O)(=O)N4CCOCC4)cc3c2C1=O [Ivachtin] was tested, and the “size of the SG, length, width and number of proliferating cells” value (sebaceous gland (SG); 20 and 30 days post injection) was “returned to normal”, the SG size (sebaceous gland (SG)) was “decrease in SG size” and the “cell proliferation / proliferative rates in the SG” value (sebaceous gland (SG)) was “impaired proliferative rates; also recorded: significant decrease”. The “number of cells positive for proliferative markers Ki67 and PCNA” value ([8]; immunostaining, Ivachtin daily, five days) was “three-fold decrease”, the “effect on cell number and colony formation” value ([8]; not supplemented daily) was “very limited effect” and the “cellular expansion (proliferation and cell number)” value ([8]; supplemented daily) was “significant impairment”. For the same compound, the expansion of cells ([9]; daily treatment) was “impaired the expansion”, the “effect on expansion of cells” value ([9]; not supplemented daily) was “very limited effect” and the “levels of α-Catenin in wounded skin / invading keratinocytes” value ([4]; 5-7 days PWI) was “increased α-Catenin levels”. The “cleavage of α-Catenin in wounded dorsalskin” value ([4]; 7 days PWI, Western blot) was “impairment in cleavage”, the “number of nuclear YAP and Ki67 cells” value ([4]; 12 days PWI) was “decreased number” and the wound closure ([4]; FIGS. 19A-F) was “significant decrease”. For the same compound, the “effect of combining caspase-3 and YAP inhibition on wound healing” value ([4]; Ivachtin, Verteporfin or both) was “no additive effect”, the “healing at all time points” value ([4]; daily subcutaneous injection) was “less efficient” and the “wound size reduced by” value ([4]; three days post wound infliction, injected from 2 days prior to wounding) was 10%. For the same compound, the “phosphorylated YAP-positive cells (pYAP+)” value (B16F10 melanoma cells; compared to DMSO) was “significant increases”, the “growth of B16F10 melanoma cells” value (B16F10 melanoma cells; continuous presence of inhibitor) was “hindered” and the tumor weight ([10]; established B16F10 tumors) was “decrease in tumor weight”. The “YAP positive cells in resected tumors” value ([10]; mouse, in vivo) was “significant decreases”, the “cell death by TUNEL assay in resected tumors” value ([10]; mouse, in vivo) was “enhanced cell death” and the “proliferation (Ki67) in resected tumors” value ([10]; mouse, in vivo) was “reduced expression; also recorded: attenuated proliferation”. For the same compound, the tumor size ([10]; mouse, in vivo) was “smaller tumors”.
CC1(C)CCC(CN2CCN(c3ccc(C(=O)NS(=O)(=O)c4ccc(NCC5CCOCC5)c([N+](=O)[O-])c4)c(Oc4cnc5[nH]ccc5c4)c3)CC2)=C(c2ccc(Cl)cc2)C1 [ABT-199] was tested, and the SG size (sebaceous gland (SG)) was “significant increase”, the “cell proliferation / proliferative rates in the SG” value (sebaceous gland (SG)) was “significant increase” and the “caspase-3 activation in the SG” value (sebaceous gland (SG)) was “significant increase”. For the same compound, the “levels of pYAP” value (YAP [5]) was “significantly decreased”, the “tumor expansion by in vivo imaging” value (human melanoma cells) was “dramatically expanded” and the tumor mass (human melanoma cells; in vivo) was “two-fold increased”. For the same compound, the “tumor volume and weight” value ([10]; established B16F10 tumors) was “increased in volume and weight”, the “proliferation (Ki67) in resected tumors” value ([10]; mouse, in vivo) was “higher proliferation; also recorded: high levels of proliferation” and the tumor size ([10]; mouse, in vivo) was “dramatic increase in size”. The “activated cleaved Caspase-3 in resected tumors” value ([10]; staining) was “higher expression”.
